Numbered stars: 1 amine (or outer) side, 2 acyl side, 3 side chain; on linkers, the order of the positions; unused ones are H or OH. Square brackets hold non-standard residues; d marks the D form. Side chains are listed from the residue outwards. Peptide text beside a SMILES is read from it. * marks the point of attachment. γGlu = O=C(O)[C@H](CCC(=O)[*:2])N[*:1]; Palmitoyl = CCCCCCCCCCCCCCCC(=O)*; Aib = CC(C)(N)C(=O)O
How the values were obtained:
[1] = test system: female diet-induced obese (DIO) C57BL/6 mice; test: Acute and chronic effects after s.c. treatment in female diet-induced obese (DIO) C57BL/6 mice; type: in vivo; conditions: for time until mice habituated to the feed intake suppression / Feed consumption estimate: DIO mice, 30 μg/kg s.c. twice-daily; for Feed consumption estimate: after dosing start; for Blood glucose profile following first treatment: fed DIO mice, day 1, 30 μg/kg s.c., 0-24 hours post-dose
Experimental: Female C57BL/6NHsd mice were ordered group housed from Envigo RMS Inc., shipped group housed and remained group housed with shipped cage mates in shoebox caging with wood chip bedding until day 38 of the predose phase. At the study start mice were between 25-26 weeks old.
Mice were housed under vivarium conditions that included a 12 h light/dark cycle (light phase 04:00 AM-4:00 PM), room temperatures between 23-26° C. and a relative humidity between 30-70%. All animals had free access to water and a high fat diet (TD97366) for 16 weeks prior to pharmacological intervention (dosing phase). Feed was replaced with fresh feed weekly until and for the last time on day 38 of the predose phase. During the subsequent dosing phase, approximately 50% of the remaining feed were removed, replaced with fresh feed, and pellets were mixed evenly once per week.
On predose day 38, obese DIO mice were assigned to treatment groups (n=8) to match mean body masses between all DIO groups. An age-matched group with ad libitum access to a rodent maintenance diet (Teklad Global Diets Rodent 2014, pelleted) was included in the study as a lean control group. In the predosing phase from day 32 through 38, all study animals were treated with vehicle (Phosphate Buffered Saline, PBS, Gibco, without CaCl2 and MgCl2) once daily (s.c. approximately 0.2 mL/mouse).
On day 37 of the predose phase, the test article was diluted with PBS to a concentration of 100 μg/mL and aliquots of this stock solution were stored at approximately ≤−60° C. Stock aliquots were thawed for weekly use and thereafter stored in a refrigerator at approximately 4° C. The injected test article solution was prepared fresh once on each dosing day by diluting stock solution with PBS to achieve the desired concentration.
Mice were treated twice daily with a s.c. injection of PBS-vehicle or the test article for 28 days. The morning dosing was initiated and completed between 06:00 and 07:30 AM and the afternoon dosing between 2:00 and 3:30 PM. On day 28 of the dosing phase only the morning dose was administered. The applied volume was 5 ml/kg and the dose was adjusted to the most recent body mass recording of each individual.
Animals had unlimited access to water and feed during the experiment. On day 1 of the dosing phase approximately 5 μL of blood were collected via tail clips at hour 0 prior to the first s.c. dose of PBS-vehicle or test article and 1, 2, 3, 4, 6, and 24 hours post-dose in non-anesthetized animals. The 24 hour blood collection was performed prior to dosing on day 2. Between the 6 and 24 hour blood sample the afternoon dose was administered. Glucose measurements were performed in whole blood and in duplicate or triplicate using Aviva glucometers.
Body mass was measured daily approximately between 06:00-07:30 AM from day 32 through 38 of the predosing phase and throughout the 28 days of the dosing phase. During the dosing phase mice were treated twice daily with either a s.c. injection of PBS-vehicle or test article.
To determine whole body fat mass Quantitative Nuclear Magnetic Resonance (QNMR) measurements were performed on predosing day 37 and on day 26 of the dosing phase. During the dosing phase mice were treated twice daily with either a s.c. injection of PBS-vehicle or test article.
Feed consumption was based on the daily assessment of the feeder weights of each cage between 06:00-07:30 AM. Each cage housed four mice and feed consumption was calculated throughout the 28 days of the dosing phase. During the dosing phase mice were treated twice daily with either a s.c. injection of PBS-vehicle or test article.
On day 28 blood was collected prior to any other inlife activities for determination of plasma insulin concentrations. Then the morning dose was administered and necropsy was performed 4 hours post-dose. For this purpose animals were anesthetized with isoflurane and blood was collected by orbital bleeding. […]

human GIP receptor = target: T1, human GIP receptor (Homo sapiens, UniProt P48546); test: cAMP response (HTRF) of HEK-293 cells stably expressing human GIP receptor; type: cell-based; conditions: Table 8; read-out: EC50 hGIP R
T1 construct: expressed in transfected cells; host or cells: HEK-293
T1 sequence (P48546 22-466): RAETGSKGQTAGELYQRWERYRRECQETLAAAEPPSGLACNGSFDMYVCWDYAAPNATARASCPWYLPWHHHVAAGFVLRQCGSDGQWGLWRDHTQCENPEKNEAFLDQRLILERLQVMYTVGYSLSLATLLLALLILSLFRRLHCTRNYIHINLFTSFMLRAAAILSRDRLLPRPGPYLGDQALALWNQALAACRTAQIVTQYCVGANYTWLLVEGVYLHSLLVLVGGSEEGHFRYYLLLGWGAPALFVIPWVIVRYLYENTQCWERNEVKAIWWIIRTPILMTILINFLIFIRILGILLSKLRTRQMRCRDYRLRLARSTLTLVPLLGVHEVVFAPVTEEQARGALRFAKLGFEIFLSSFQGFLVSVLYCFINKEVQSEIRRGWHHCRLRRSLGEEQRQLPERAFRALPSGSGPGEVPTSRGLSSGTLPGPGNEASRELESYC
Method in brief: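 HEK-293 cells stably expressing human GIP receptor were incubated with compound for 30 min at room temperature in HBSS/20 mM HEPES/0.1% BSA with 2 mM IBMX. cAMP was measured by HTRF (665/616 nm ratio) after 1 h with detection reagents in lysis buffer; EC50 is the concentration giving 50% of maximal response.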

EC50 (human GIP receptor)	SMILES	time until mice habituated to the feed intake suppression [1]	Feed consumption estimate [1]	Blood glucose profile following first treatment [1]
	CCCCCCCCCCCCCCCC(=O)N[C@@H](CCC(=O)N[C@@H](CCC(=O)NCCCC[C@H](NC(=O)[C@H](CC(C)C)NC(=O)[C@H](CCCCN)NC(=O)[C@H](CO)NC(=O)[C@H](CC(C)C)NC(=O)[C@H](CC(=O)O)NC(=O)[C@H](CO)NC(=O)[C@@H](NC(=O)[C@H](Cc1ccccc1)NC(=O)[C@@H](NC(=O)CNC(=O)[C@H](Cc1c[nH]cn1)NC(=O)C(C)(C)NC(=O)[C@@H](N)Cc1c[nH]cn1)[C@@H](C)O)[C@@H](C)O)C(=O)N[C@@H](CCC(=O)O)C(=O)N[C@@H](CCC(=O)O)C(=O)N[C@@H](CCC(N)=O)C(=O)N[C@@H](CCCNC(=N)N)C(=O)N[C@@H](CCC(N)=O)C(=O)N[C@@H](CCCCN)C(=O)N[C@@H](CCC(=O)O)C(=O)N[C@@H](Cc1ccccc1)C(=O)N[C@H](C(=O)N[C@@H](CCC(=O)O)C(=O)N[C@@H](Cc1c[nH]c2ccccc12)C(=O)N[C@@H](CC(C)C)C(=O)N[C@@H](CCCCN)C(=O)N[C@@H](C)C(=O)NCC(=O)NCC(=O)N[C@@H](Cc1c[nH]cn1)C(=O)N1CCC[C@H]1C(=O)N[C@@H](CO)C(=O)NC(C)(C)C(=O)N[C@@H](CCCCN)C(=O)N1CCC[C@H]1C(=O)N1CCC[C@H]1C(=O)N1CCC[C@H]1C(=O)N[C@@H](CCCCN)C(N)=O)[C@@H](C)CC)C(=O)O)C(=O)O [SEQ ID NO: 6, H-Aib-H-G-T-F-T-S-D-L-S-K-L-K[gGlu-gGlu-Palm]-E-E-Q-R-Q-K-E-F-I-E-W-L-K-A-G-G-H-P-S-Aib-K-P-P-P-K-NH2]	approximately ten	suppressed feed intake	pronounced decrease in blood glucose concentrations over 24 hours
1.5 pM	CCCCCCCCCCCCCCCC(=O)N[C@@H](CCC(=O)N[C@@H](CCC(=O)NCCCC[C@H](NC(=O)[C@H](CC(C)C)NC(=O)[C@H](CCCCN)NC(=O)[C@H](CO)NC(=O)[C@H](CC(C)C)NC(=O)[C@H](CC(=O)O)NC(=O)[C@H](CO)NC(=O)[C@@H](NC(=O)[C@H](Cc1ccccc1)NC(=O)[C@@H](NC(=O)CNC(=O)[C@H](Cc1c[nH]cn1)NC(=O)C(C)(C)NC(=O)[C@@H](N)Cc1c[nH]cn1)[C@@H](C)O)[C@@H](C)O)C(=O)N[C@@H](CCC(=O)O)C(=O)N[C@@H](CCC(=O)O)C(=O)N[C@@H](CCC(N)=O)C(=O)N[C@@H](CCCNC(=N)N)C(=O)N[C@@H](CCC(N)=O)C(=O)NC(C)(C)C(=O)N[C@@H](CCC(=O)O)C(=O)N[C@@H](Cc1ccccc1)C(=O)N[C@H](C(=O)N[C@@H](CCC(=O)O)C(=O)N[C@@H](Cc1c[nH]c2ccccc12)C(=O)N[C@@H](CC(C)C)C(=O)N[C@@H](CCCCN)C(=O)N[C@@H](C)C(=O)N[C@H](C)C(=O)NCC(=O)N1CCC[C@H]1C(=O)N1CCC[C@H]1C(=O)N[C@@H](CO)C(=O)NC(C)(C)C(=O)N[C@@H](CCCCN)C(=O)N1CCC[C@H]1C(=O)N1CCC[C@H]1C(=O)N1CCC[C@H]1C(=O)N[C@@H](CCCCN)C(N)=O)[C@@H](C)CC)C(=O)O)C(=O)O [SEQ ID NO: 11, H-Aib-H-G-T-F-T-S-D-L-S-K-L-K[gGlu-gGlu-Palm]-E-E-Q-R-Q-Aib-E-F-I-E-W-L-K-A-dAla-G-P-P-S-Aib-K-P-P-P-K-NH2] (H-H[Aib]HGTFTSDLSKLK([γGlu-γGlu-Palmitoyl])EEQRQ[Aib]EFIEWLKA[dA]GPPS[Aib]KPPPK-NH2)	approximately 15 days	suppressed feed intake	pronounced decrease in blood glucose concentrations that persisted over 24 hours

Source: patent US10538567B2, “Compounds as peptidic trigonal GLP1/glucagon/GIP receptor agonists” (priority 2016, dated 2020)
